Measured values from PubChem BioAssay AID220 (DTP/NCI, 2004).
Several values for one entry are separate records, joined by “and”; a condition that tells them apart may be missing. Equal values may be shown once. Results filed as inconclusive are left out. Starred links: 1 amine or outer side, 2 acyl side, 3 side chain; linkers in the order of their positions; H or OH if unused. Positions of bridges follow the written chain, without caps; N, C: chain ends. Non-standard residues stand in square brackets, D forms with d. Residues, ends and D or L forms follow the SMILES beside them. Chains are numbered I, II in the order given. Actinocin(9to1) = Cc1c2oc3c(C)ccc(C(=O)[*:1])c3nc-2c(C(=O)[*:2])c(N)c1=O; aThr = C[C@H](O)[C@H](N)C(=O)O; NMeV = CN[C@H](C(=O)O)C(C)C; Sar = CNCC(=O)O

Tested on: CD8F1 mice, subcutaneous mammary adenocarcinoma, T/C%
Assay: NCI In Vivo Anticancer Drug Screen. Data for tumor model Mammary Adenocarcinoma CD8F1 (subcutaneous) in CD8F1
Settings: higher = larger tumour
Outline: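 Mice carrying transplanted tumors received test compound, and survival or tumor size was recorded. Each value is the treated-group measurement divided by the corresponding measurement in vehicle-dosed controls.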

[1] = endpoint: median tumor weight change, dose: 62.5 mg/kg/injection, schedule: Q01DX001 (ip), vehicle: saline with Tween-80
[2] = endpoint: median tumor weight change, dose: 125.0 mg/kg/injection, schedule: Q01DX001 (ip), vehicle: saline with Tween-80
[3] = endpoint: median tumor weight change, dose: 250.0 mg/kg/injection, schedule: Q01DX001 (ip), vehicle: saline with Tween-80

## CC1c2ccccc2CC(CCN(C)C)c2ccccc21 (stereo not given)
endpoint: median tumor weight change, dose: 1.95 mg/kg/injection, schedule: Q01DX001 (ip), vehicle: saline with Tween-80
  T/C: 76 % of control
endpoint: median tumor weight change, dose: 3.9 mg/kg/injection, schedule: Q01DX001 (ip), vehicle: saline with Tween-80
  T/C: 71 % of control
endpoint: median tumor weight change, dose: 7.8 mg/kg/injection, schedule: Q01DX001 (ip), vehicle: saline with Tween-80
  T/C: 87 % of control
endpoint: median tumor weight change, dose: 15.62 mg/kg/injection, schedule: Q01DX001 (ip), vehicle: saline with Tween-80
  T/C: 73 % of control

## C[n+]1c(/C=N/NC(N)=S)ccc2ccccc21
[1]
  T/C: 108 % of control
[2]
  T/C: 181 % of control
[3]
  T/C: 77 % of control

## O=C1NC(=O)C2C3C=CC(C12)C1C2C(=O)NC(=O)C2C31 (stereo not given)
endpoint: median tumor weight change, dose: 18.0 mg/kg/injection, schedule: Q01DX005 (ip), vehicle: water
  T/C: 62 % of control
endpoint: median tumor weight change, dose: 30.0 mg/kg/injection, schedule: Q01DX005 (ip), vehicle: water
  T/C: 17 % of control
endpoint: median tumor weight change, dose: 50.0 mg/kg/injection, schedule: Q01DX005 (ip), vehicle: water
  T/C: -5 % of control
endpoint: median tumor weight change, dose: 54.0 mg/kg/injection, schedule: Q01DX001 (ip), vehicle: saline
  T/C: 64 % of control
endpoint: median tumor weight change, dose: 62.0 mg/kg/injection, schedule: Q01DX001 (ip), vehicle: saline with Tween-80
  T/C: 70 % of control
[1]
  T/C: 78 % of control
endpoint: median tumor weight change, dose: 90.0 mg/kg/injection, schedule: Q01DX001 (ip), vehicle: saline
  T/C: 30 % of control
[2]
  T/C: 15 % of control and 27 % of control
[3]
  T/C: -25 % of control

## O=C1c2cccc3cc([N+](=O)[O-])cc(c23)C(=O)N1CCN1CCCC1
endpoint: median tumor weight change, dose: 7.0 mg/kg/injection, schedule: Q01DX001 (ip), vehicle: saline with Tween-80
  T/C: 117 % of control
endpoint: median tumor weight change, dose: 14.06 mg/kg/injection, schedule: Q01DX001 (ip), vehicle: saline with Tween-80
  T/C: 69 % of control
endpoint: median tumor weight change, dose: 28.12 mg/kg/injection, schedule: Q01DX001 (ip), vehicle: saline with Tween-80
  T/C: 118 % of control
endpoint: median tumor weight change, dose: 31.25 mg/kg/injection, schedule: Q01DX001 (ip), vehicle: saline with Tween-80
  T/C: 63 % of control
endpoint: median tumor weight change, dose: 56.25 mg/kg/injection, schedule: Q01DX001 (ip), vehicle: saline with Tween-80
  T/C: 81 % of control
[1]
  T/C: 20 % of control
endpoint: median tumor weight change, dose: 112.5 mg/kg/injection, schedule: Q01DX001 (ip), vehicle: saline with Tween-80
  T/C: 18 % of control

## Cc1c2oc3c(C)ccc(C(=O)N[C@@H]4C(=O)N[C@H](C(C)C)C(=O)N5CCC[C@H]5C(=O)N(C)CC(=O)N(C)[C@@H](C(C)C)C(=O)O[C@H]4C)c3nc-2c(C(=O)N[C@@H]2C(=O)N[C@H](C(C)C)C(=O)N3CCC[C@H]3C(=O)N(C)CC(=O)N(C)[C@@H](C(C)C)C(=O)O[C@H]2C)c(N)c1=O (I: [aThr][dV]P[Sar][NMeV] / II: [aThr][dV]P[Sar][NMeV]; ester I:1-I:C, II:1-II:C; linker I:N-II:N via Actinocin(9to1))
endpoint: mean tumor weight, dose: 0.02 mg/kg/injection, schedule: Q01DX009 (ip), vehicle: saline
  T/C: 98 % of control
endpoint: mean tumor weight, dose: 0.03 mg/kg/injection, schedule: Q01DX009 (ip), vehicle: saline + alcohol
  T/C: 73 % of control
endpoint: mean tumor weight, dose: 0.04 mg/kg/injection, schedule: Q01DX009 (ip), vehicle: saline + alcohol
  T/C: 65 % of control
endpoint: mean tumor weight, dose: 0.04 mg/kg/injection, schedule: Q01DX009 (ip), vehicle: saline
  T/C: 28 % of control
endpoint: mean tumor weight, dose: 0.1 mg/kg/injection, schedule: Q07DX007 (ip), vehicle: saline
  T/C: 36 % of control
endpoint: mean tumor weight, dose: 0.2 mg/kg/injection, schedule: Q07DX007 (ip), vehicle: saline
  T/C: 5 % of control
endpoint: median tumor weight (est.), dose: 0.03 mg/kg/injection, schedule: Q07DX005 (ip), vehicle: saline
  T/C: 56 % of control
endpoint: median tumor weight (est.), dose: 0.15 mg/kg/injection, schedule: Q07DX005 (ip), vehicle: saline
  T/C: 34 % of control and 49 % of control
endpoint: median tumor weight (est.), dose: 0.3 mg/kg/injection, schedule: Q07DX005 (ip), vehicle: saline
  T/C: 24 % of control
endpoint: median tumor weight (est.), dose: 12.5 micrograms/kg/injection, schedule: Q07DX005 (ip), vehicle: saline
  T/C: 66 % of control
endpoint: median tumor weight (est.), dose: 25.0 micrograms/kg/injection, schedule: Q07DX005 (ip), vehicle: saline
  T/C: 60 % of control
endpoint: median tumor weight (est.), dose: 50.0 micrograms/kg/injection, schedule: Q07DX005 (ip), vehicle: saline
  T/C: 70 % of control
endpoint: median tumor weight (est.), dose: 100.0 micrograms/kg/injection, schedule: Q07DX005 (ip), vehicle: saline
  T/C: 38 % of control
endpoint: median tumor weight (est.), dose: 200.0 micrograms/kg/injection, schedule: Q07DX005 (ip), vehicle: saline
  T/C: 9 % of control
endpoint: median tumor weight change, dose: 0.12 mg/kg/injection, schedule: Q01DX001 (ip), vehicle: saline
  T/C: 55 % of control
endpoint: median tumor weight change, dose: 0.25 mg/kg/injection, schedule: Q01DX001 (ip), vehicle: saline
  T/C: 30 % of control and 39 % of control
endpoint: median tumor weight change, dose: 0.5 mg/kg/injection, schedule: Q01DX001 (ip), vehicle: saline
  T/C: 7 % of control and 27 % of control
